What all share (format): biochemical
For experiment [1], the target named is T1, CDK-2/cycline A (Homo sapiens, UniProt P24941).
T1 construct: purchased Upstate
The experiment is described as follows: CDK-2 enzyme inhibition (histone H1, 32P-ATP). On the procedure:
(§1) 0.33 mg/ml of MBP (Upstate), 100 μM of ATP and 0.25 μCi of ^32P-ATP were added to the buffer solution as substrates. 5 nM of recombinant Erk-1 (Upstate) was added the resulting mixture, and the mixture was reacted at 30° C. for 1 hour. The reaction was terminated by adding 5 μl of 5% phosphoric acid solution to 25 μl of the reaction mixture. 15 μl of the resulting solution was dropped on whatman p81 filter paper, which was then washed in 0.5% phosphoric acid solution for 10 mins. After repeating the washing 3 times, the filter paper was dried and cpm thereof was measured by a liquid scintillation counter (Packard, USA). Inhibitory capacities of the test compounds for the enzyme activity were assessed according to the same method as in GSK-3β analysis, and IC50 value was calculated.
The procedure of ERK-1 analysis was repeated to assess inhibitory capacities of the test compounds for the enzyme activity, except for using 2.5 μg of histone H1 (Upstate) and 100 nM of recombinant CDK-2/cycline A (Upstate).

The target in experiment [2] is T2, KDR (Homo sapiens, UniProt P35968).
T2 construct: purchased Upstate
T2 sequence (P35968 20-1356, species assumed): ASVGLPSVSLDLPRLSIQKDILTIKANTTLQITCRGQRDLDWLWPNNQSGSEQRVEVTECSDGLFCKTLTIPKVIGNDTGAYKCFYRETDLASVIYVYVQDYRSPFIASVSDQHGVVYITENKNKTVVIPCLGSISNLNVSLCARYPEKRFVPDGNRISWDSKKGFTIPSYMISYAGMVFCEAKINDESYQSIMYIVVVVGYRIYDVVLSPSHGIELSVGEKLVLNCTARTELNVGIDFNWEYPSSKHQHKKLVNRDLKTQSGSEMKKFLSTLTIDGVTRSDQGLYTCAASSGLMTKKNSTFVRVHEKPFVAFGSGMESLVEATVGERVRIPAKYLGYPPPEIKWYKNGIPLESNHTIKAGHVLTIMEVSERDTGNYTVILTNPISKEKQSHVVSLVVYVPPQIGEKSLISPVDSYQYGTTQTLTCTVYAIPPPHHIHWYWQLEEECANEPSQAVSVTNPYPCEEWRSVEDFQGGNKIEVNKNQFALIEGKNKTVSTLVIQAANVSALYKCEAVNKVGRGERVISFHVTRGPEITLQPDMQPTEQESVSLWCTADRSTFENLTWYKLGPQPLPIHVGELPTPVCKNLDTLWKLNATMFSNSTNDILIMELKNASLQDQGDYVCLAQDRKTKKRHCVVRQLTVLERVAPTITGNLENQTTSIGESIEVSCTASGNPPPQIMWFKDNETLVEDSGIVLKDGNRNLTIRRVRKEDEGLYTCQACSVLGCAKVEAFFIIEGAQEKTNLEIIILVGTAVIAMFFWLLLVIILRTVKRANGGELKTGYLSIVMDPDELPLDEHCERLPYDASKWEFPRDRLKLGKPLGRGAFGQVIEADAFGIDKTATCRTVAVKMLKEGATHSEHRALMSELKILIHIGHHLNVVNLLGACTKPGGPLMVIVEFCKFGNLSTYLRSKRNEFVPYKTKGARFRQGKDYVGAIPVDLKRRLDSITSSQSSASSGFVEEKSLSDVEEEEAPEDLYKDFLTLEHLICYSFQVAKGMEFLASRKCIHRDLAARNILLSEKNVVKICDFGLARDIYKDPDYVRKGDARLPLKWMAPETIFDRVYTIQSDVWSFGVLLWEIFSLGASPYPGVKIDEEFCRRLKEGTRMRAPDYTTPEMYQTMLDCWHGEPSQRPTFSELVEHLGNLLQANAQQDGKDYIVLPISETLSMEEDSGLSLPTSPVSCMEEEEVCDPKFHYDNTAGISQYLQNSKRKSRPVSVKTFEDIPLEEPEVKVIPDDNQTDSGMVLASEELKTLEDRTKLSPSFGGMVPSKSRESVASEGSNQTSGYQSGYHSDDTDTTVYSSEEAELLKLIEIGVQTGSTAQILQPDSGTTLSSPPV
Briefly: KDR enzyme inhibition (Biotin-polyE4Y, alphascreen). The settings on record: 0.1 μM ATP. On the procedure:
(§2) The test solution prepared above by dissolving a test compound in DMSO was added to the reaction solution in an amount of less than 5% based on the total reaction solution to analyze the capacity for enzyme inhibitory activity. The cpm value obtained when the test compounds was present relative to the cpm value in the absence of the test compound was represented by percentage, and IC50 (μM) was determined as the concentration of the test compound required to inhibit the enzyme activity by 50% relatively to the control solution.
The compounds prepared in the Examples were dissolved in dimethylsulfoxide (DMSO) at a concentration of 12.5 mM to prepare test solution, and enzyme reaction was conducted in a buffer solution containing 50 mM tris-HCl (pH 7.5), 5 mM MgCl2, 1 mM MnCl2, 0.01% tween-20 and 2 mM of DTT. 1 nM of Biotin-polyE4Y (Packard) and 0.1 μM of ATP were added to the buffer solution as substrates. 2 nM of recombinant KDR (Upstate) was added the resulting mixture and reaction was carried out at 30° C. for 1 hour. 10 μl of a diluted solution prepared by diluting alphascreen phosphotyrosine (T-Tyr-100, Packard) beads with a solution containing 6.25 mM of HEPES (pH 7.4), 250 mM of NaCl, 100 Mm EDTA, and 0.25% BSA was added to 15 μl of the KDR reaction solution. After a reaction at a room temperature for 1 hour, alphascreen signal was measured by a fusion a-FP (Packard). Inhibitory capacities of the test compounds for the enzyme activity were assessed according to the same method as in GSK-3β analysis, and IC50 value was calculated.

Experiment [3] addresses T3, Aurora Kinase A (Homo sapiens, UniProt O14965).
T3 construct: purchased Upstate
T3 sequence (O14965 1-403): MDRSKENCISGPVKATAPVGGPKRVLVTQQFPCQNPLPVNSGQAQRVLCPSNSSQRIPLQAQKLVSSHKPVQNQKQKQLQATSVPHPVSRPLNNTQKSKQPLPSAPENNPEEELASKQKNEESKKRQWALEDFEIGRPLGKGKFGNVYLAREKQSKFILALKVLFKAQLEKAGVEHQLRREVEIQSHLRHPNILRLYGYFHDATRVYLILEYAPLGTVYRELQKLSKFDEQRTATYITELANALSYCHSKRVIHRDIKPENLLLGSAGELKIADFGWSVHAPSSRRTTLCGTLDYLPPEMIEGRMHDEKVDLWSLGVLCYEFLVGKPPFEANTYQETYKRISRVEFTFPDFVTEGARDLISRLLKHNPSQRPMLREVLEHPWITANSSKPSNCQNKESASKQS
Briefly: Aurora kinase A enzyme inhibition (Kemptide, Kinase glo). Conditions: 1 μM ATP. Here is the method: as §2
(§3) A test solution was prepared by dissolving one of the compounds of the Examples in DMSO at a concentration of 12.5 mM. Enzyme reaction was conducted in a buffer solution containing 20 mM of HEPES (pH 7.5), 5 mM MgCl2, 0.5 mM ethylene glycol bis(b-aminoethylether) tetraacetic acid (EGTA), 200 mM of KCl, 1 mM of DTT and 0.05% triton X-100. 100 μM of Kemptide peptide (Upstate) and 1 μM of ATP were added to the buffer solution as substrates. Recombinant aurora kinase (Upstate) was added the resulting mixture at a concentration of 10 nM and reaction was carried out at 30° C. for 1 hour. 25 μl of the resulting solution was mixed with 25 μl of Kinase glo (promega), thereby inducing the second reaction by luciferase. The amount of remained ATP was measured by fusion a-FP (Packard, USA). Inhibitory capacities of the test compounds for the enzyme activity were assessed according to the same method as in GSK-3β analysis, and IC50 value was calculated.
In general terms: In Kinase-Glo more light means more ATP remaining.

The target of experiment [4] is T4, PDK-1 (Homo sapiens, UniProt O15530).
T4 construct: purchased Upstate
T4 sequence (O15530 1-556): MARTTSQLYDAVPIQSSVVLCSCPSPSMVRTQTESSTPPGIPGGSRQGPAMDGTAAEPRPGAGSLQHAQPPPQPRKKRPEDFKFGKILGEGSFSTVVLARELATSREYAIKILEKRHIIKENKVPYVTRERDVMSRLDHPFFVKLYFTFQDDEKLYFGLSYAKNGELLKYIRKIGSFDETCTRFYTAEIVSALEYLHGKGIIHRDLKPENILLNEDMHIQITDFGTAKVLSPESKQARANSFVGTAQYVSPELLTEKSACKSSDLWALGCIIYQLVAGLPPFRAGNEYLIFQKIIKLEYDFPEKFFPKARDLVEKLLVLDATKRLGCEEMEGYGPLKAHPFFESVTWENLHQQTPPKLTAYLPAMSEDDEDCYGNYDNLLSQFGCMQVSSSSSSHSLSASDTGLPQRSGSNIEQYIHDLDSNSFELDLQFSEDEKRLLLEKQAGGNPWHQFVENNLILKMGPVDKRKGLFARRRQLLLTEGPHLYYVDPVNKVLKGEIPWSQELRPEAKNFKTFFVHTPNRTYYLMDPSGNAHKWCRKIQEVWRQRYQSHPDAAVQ
Briefly: PDK-1 enzyme inhibition (PDKtide, Kinase glo). Here is the method: as §3
The procedure of aurora kinase A analysis was repeated to assess inhibitory capacities of the test compounds for the enzyme activity, except for using a buffer solution containing 50 mM of tris-HCl (pH 7.5), 10 mM of MgCl2, 1 mM of EGTA and 1 mM of […]; 2.5 μM of PDKtide (peptide, Upstate) (Upstate); and 31.5 nM of recombinant PDK1 (Upstate).

The target of experiment [5] is T5, JNK-1 (Homo sapiens, UniProt P45983).
T5 construct: purchased Upstate
T5 sequence (P45983 whole entry, species assumed): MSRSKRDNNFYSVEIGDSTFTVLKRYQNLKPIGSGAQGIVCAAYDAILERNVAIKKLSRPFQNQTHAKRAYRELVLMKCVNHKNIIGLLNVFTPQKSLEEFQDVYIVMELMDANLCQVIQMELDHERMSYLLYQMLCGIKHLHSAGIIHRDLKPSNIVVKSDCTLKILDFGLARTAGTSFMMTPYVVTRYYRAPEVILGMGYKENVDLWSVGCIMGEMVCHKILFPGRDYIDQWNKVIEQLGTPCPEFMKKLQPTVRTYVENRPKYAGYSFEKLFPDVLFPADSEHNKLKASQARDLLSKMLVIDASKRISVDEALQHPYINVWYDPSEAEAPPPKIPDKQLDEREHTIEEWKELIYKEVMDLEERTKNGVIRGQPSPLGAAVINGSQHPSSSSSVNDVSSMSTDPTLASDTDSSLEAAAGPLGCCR
The experiment is described as follows: JNK-1 enzyme inhibition (GST-ATF2, 32P-ATP).

The target in experiment [6] is T6, p38 Mitogen-activated protein kinase (MAPK) (Homo sapiens, UniProt Q16539).
T6 construct: purchased Upstate
T6 sequence (Q16539 whole entry): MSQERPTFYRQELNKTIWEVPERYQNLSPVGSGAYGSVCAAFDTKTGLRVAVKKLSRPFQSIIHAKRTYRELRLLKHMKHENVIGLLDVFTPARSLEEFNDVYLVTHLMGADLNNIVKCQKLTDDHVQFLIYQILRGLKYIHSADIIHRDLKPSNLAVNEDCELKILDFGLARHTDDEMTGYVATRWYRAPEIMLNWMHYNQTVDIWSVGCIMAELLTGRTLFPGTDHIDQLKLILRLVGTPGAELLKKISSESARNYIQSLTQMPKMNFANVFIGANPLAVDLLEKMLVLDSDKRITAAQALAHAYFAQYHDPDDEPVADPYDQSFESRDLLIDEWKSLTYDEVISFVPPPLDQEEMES
Briefly: p38 MAPK enzyme inhibition (histone H1, 32P-ATP). The settings on record: p38 MAPK (recombinant p38a).
Description: The procedure of ERK-1 analysis was repeated to assess inhibitory capacities of the test compounds for the enzyme activity, except for using 2.5 μg of histone H1 (Upstate) and 5 nM of recombinant p38a (Upstate).

Experiment [7] concerns the target T7, ERK-1 (Homo sapiens, UniProt P27361).
T7 construct: purchased Upstate
The experiment is described as follows: ERK-1 enzyme inhibition (MBP, 32P-ATP). The settings on record: ERK-1, 100 μM ATP. Here is the method: as §2
as §1, with “The compounds prepared in the Examples were dissolved in dimethylsulfoxide (DMSO) at a concentration of 12.5 mM to prepare test compounds and enzyme reaction was conducted in a buffer solution containing 50 mM of tris-HCl (pH 7.5), 10 mM of MgCl2, 1 mM of EGTA, 1 mM of EDTA and 1 mM of DTT. 0.33” for “0.33”

For eight compounds, IC50 results are on record in patent US20090170847A1, “Imidazopyridine Derivatives Inhibiting Protein Kinase Activity, Method for the Preparation Thereof and Pharmaceutical Composition Containing Same” (priority 2006, published 2009).

Each structure is given as a SMILES string.

T7 sequence (P27361 whole entry, species assumed): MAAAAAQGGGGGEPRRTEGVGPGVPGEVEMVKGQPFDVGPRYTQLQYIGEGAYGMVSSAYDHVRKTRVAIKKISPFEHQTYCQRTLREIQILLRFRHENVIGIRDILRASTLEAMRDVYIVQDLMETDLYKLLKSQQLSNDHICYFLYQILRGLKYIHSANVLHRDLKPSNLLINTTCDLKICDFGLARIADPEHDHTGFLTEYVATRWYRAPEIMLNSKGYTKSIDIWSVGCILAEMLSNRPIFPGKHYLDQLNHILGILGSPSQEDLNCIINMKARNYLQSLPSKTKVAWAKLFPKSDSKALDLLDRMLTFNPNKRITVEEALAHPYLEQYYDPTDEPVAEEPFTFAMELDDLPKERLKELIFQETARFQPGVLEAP

Turning to `CCS(=O)(=O)Nc1ccc(CCNC(=O)c2ccnc3[nH]c(-c4ccc(F)cc4)nc23)cc1` [Example 198, 2-(4-fluoro-phenyl)-3H-imidazo[4,5-b]pyridine-7-carboxylic acid[2-(4-ethanesulfonylamino-phenyl)-ethyl]-amide], the IC50 worked out at 2.4 µM in experiment [1] and 12.5 µM in experiment [2].
On to `Cc1ccncc1NC(=O)c1ccnc2[nH]c(-c3ccc(NCCCCN(C)C)cc3)nc12` [Example 343, 2-[4-(4-dimethylamino-butylamino)-phenyl]-3H-imidazo[4,5-b]pyridine-7-carboxylic acid(4-methyl-pyridin-3-yl)-amide], for which the IC50 in experiment [3] came to 0.198 µM; in experiment [1], 0.3 µM; in experiment [4], 3.1 µM; in experiment [2], 0.17 µM.
For `Cc1ccncc1NC(=O)c1ccnc2[nH]c(-c3ccc(NCCCN4CCCC4)cc3)nc12` [Example 340, 2-[4-(3-pyrrolidin-1-yl-propylamino)-phenyl]-3H-imidazo[4,5-b]pyridine-7-carboxylic acid(4-methyl-pyridin-3-yl)-amide], the 50% inhibitory concentration (IC50) is 0.4 µM in experiment [1] and 0.1 µM in experiment [5].
As to `Cc1ccncc1NC(=O)c1ccnc2[nH]c(-c3cccc(F)c3)nc12` [Example 451, 2-(3-fluoro-phenyl)-3H-imidazo[4,5-b]pyridine-7-carboxylic acid(4-methyl-pyridin-3-yl)-amide], the IC50 was determined as 0.36 µM in experiment [1], 3.25 µM in experiment [6], 10.5 µM in experiment [5] and 1.65 µM in experiment [2].
With `Cc1ccncc1NC(=O)c1c(Br)cnc2[nH]c(-c3cccc(F)c3)nc12` [Example 452, 6-bromo-2-(3-fluoro-phenyl)-3H-imidazo[4,5-b]pyridine-7-carboxylic acid(4-methyl-pyridin-3-yl)-amide], the figures for the IC50 in experiment [7] and in experiment [1] were 19 µM and 0.35 µM, respectively.
With `CCOc1ccncc1NC(=O)c1ccnc2[nH]c(-c3ccc(F)cc3)nc12` [Example 287, 2-(4-fluoro-phenyl)-3H-imidazo[4,5-b]pyridine-7-carboxylic acid(4-ethoxy-pyridin-3-yl)-amide], the IC50 in experiment [1] was found to be 0.12 µM; in experiment [5], 0.46 µM; in experiment [2] it was 1.5 µM.
For `Cc1ccncc1NC(=O)c1ccnc2[nH]c(-c3ccc(F)cc3)nc12` [Example 241, 2-(4-fluoro-phenyl)-3H-imidazo[4,5-b]pyridine-7-carboxylic acid(4-methyl-pyridin-3-yl)-amide], the figures for the IC50 in experiment [7] and in experiment [4] were 16.5 µM and 28.5 µM, respectively.
For the compound `COc1ccncc1NC(=O)c1ccnc2[nH]c(-c3ccc(F)cc3)nc12` [Example 246, 2-(4-fluoro-phenyl)-3H-imidazo[4,5-b]pyridine-7-carboxylic acid(4-methyloxy-pyridin-3-yl)-amide], the IC50 was determined as 0.225 µM in experiment [1], 0.18 µM in experiment [5] and 0.52 µM in experiment [2].

Usually IC50 stands for the point on the concentration scale where inhibition reaches its midpoint.
